This note sets out measurements from ChEMBL document CHEMBL5346971, “Discovery of the First Irreversible HDAC6 Isoform Selective Inhibitor with Potent Anti-Multiple Myeloma Activity” (J Med Chem, 2023).

Data set [1] can be described thus: Effect on HDAC6 protein expression in human A549 cells assessed as change in HDAC6 protein expression at 0.4 uM incubated for 5 hrs followed by drug wash-out and measured following drug wash-out by western blot analysis relative to control. In kind it is functional.
Data set [2] can be described thus: Cytotoxicity against human L02 cells assessed as inhibition of cell proliferation incubated for 48 hrs by CCK8 assay. The data set is classed as toxicity, cell-based. In general terms: Formazan colour is commonly taken as a measure of viable cells.
The nature of data set [3]: Effect on HDAC6 protein expression in human A549 cells assessed as change in HDAC6 protein expression at 0.4 uM incubated for 5 hrs followed by drug wash-out for 1 hr by western blot analysis relative to control. The data set is classed as functional. On the technique in general: Immunoblotting shows a protein as a band on a membrane.
Data set [4] concerns the target Class 1 histone deacetylase (Homo sapiens) (UniProt Q13547+O15379+Q92769+Q9BY41). Description: Irreversible inhibition of class 1 HDAC in human A549 cells assessed as acetyl histone H3 level at 0.4 uM incubated for 5 hrs followed by drug wash-out and measured immediately after drug wash-out by western blot analysis relative to control. The data set is classed as cell-based.

For data set [5], the target named is T1, Polyamine deacetylase HDAC10 (Homo sapiens, UniProt Q969S8).
T1 sequence (Q969S8 whole entry): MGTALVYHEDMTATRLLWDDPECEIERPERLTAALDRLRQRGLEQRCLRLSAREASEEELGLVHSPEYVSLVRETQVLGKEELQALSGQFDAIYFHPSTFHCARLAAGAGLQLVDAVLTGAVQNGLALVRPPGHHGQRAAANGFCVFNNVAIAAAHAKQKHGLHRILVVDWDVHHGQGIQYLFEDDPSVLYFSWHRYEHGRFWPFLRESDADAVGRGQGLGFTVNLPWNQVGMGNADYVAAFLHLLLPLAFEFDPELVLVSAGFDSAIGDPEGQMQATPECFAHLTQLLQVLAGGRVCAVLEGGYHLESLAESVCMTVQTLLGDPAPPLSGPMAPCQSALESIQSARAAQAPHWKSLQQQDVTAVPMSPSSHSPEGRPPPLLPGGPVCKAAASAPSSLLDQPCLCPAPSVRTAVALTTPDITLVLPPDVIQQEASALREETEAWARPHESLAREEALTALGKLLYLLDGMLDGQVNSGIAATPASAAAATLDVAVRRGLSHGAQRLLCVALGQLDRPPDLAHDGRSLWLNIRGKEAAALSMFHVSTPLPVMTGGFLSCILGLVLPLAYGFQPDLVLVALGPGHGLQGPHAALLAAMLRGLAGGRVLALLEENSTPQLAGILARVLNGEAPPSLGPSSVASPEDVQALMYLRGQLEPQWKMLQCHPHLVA
Description: Inhibition of N-terminal FLAG-tagged human recombinant HDAC10 (2 to 631 residues) expressed in baculovirus-infected Sf9 cells using Acetyl-Arg-His-Lys(acety1)-Lys-(acety1)-AMC as substrate peincubated with enzyme for 1 hr followed by substrate addition and measured after 30 mins by fluorescence based analysis.

Data set [6] deals with RPMI-8226. Description: Induction of cell cycle arrest in human RPMI-8226 cells assessed as proportion of cells at G2/M phase at 0.1 uM incubated for 24 hrs by PI staining based flow cytometry (reference value: 19.8%). The data set is classed as functional.
Data set [7] concerns the target T2, Protein deacetylase HDAC6 (Homo sapiens) (UniProt Q9UBN7).
T2 sequence (whole entry): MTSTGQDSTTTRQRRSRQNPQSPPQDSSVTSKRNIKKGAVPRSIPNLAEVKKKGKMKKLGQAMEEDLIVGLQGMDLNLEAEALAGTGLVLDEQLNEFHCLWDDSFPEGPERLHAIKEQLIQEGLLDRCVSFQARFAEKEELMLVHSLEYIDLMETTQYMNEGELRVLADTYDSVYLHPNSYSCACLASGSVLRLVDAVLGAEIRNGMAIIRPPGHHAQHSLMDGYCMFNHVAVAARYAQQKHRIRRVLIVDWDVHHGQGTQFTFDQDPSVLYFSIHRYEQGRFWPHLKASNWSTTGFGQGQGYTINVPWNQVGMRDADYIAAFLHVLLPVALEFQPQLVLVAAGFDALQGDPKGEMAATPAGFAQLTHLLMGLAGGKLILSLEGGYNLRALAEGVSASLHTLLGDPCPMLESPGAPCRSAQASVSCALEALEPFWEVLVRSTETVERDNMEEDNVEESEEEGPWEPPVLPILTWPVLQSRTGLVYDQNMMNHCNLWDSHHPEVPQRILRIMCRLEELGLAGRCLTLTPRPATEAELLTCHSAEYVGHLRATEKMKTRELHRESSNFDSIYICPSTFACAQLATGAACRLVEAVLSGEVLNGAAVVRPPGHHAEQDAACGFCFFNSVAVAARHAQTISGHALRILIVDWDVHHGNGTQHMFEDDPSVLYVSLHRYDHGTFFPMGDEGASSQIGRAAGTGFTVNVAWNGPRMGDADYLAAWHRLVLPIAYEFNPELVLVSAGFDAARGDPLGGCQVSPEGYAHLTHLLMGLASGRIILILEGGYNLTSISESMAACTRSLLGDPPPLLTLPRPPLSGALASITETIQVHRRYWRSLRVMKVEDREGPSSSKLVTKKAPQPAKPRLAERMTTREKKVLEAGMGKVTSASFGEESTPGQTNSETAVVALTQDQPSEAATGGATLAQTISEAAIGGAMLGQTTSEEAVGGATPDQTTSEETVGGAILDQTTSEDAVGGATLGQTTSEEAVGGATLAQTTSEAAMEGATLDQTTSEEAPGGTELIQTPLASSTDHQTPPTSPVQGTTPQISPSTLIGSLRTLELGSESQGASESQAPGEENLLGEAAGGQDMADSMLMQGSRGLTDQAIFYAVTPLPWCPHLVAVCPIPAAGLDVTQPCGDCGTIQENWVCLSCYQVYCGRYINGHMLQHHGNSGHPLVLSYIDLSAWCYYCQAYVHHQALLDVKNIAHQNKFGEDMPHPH
Nature of the data set: Irreversible inhibition of HDAC6 in human A549 cells assessed as acetyl alpha-tubulin level at 0.4 uM incubated for 5 hrs followed by drug wash-out for 24 hrs by western blot analysis relative to control. In kind it is cell-based.

Data set [8] can be described thus: Effect on HDAC6 protein expression in human A549 cells assessed as change in HDAC6 protein expression at 0.4 uM incubated for 5 hrs followed by drug wash-out for 24 hrs by western blot analysis relative to control. The data set is classed as functional.
Data set [9] addresses Histone deacetylase 3/Nuclear receptor corepressor 2 (HDAC3/NCoR2) (Homo sapiens, UniProt O15379). Description: Inhibition of C-terminal His-tagged human HDAC3 (1 to 428 residues)/N-terminal GST-tagged human NCOR2 (395 to 489 residues) expressed in baculovirus-infected Sf9 cells using Boc-Lys(acetyI)-AMC as substrate preincubated with enzyme for 1 hr followed by substrate addition and measured after 30 mins by fluorescence based analysis.

Data set [10] concerns RPMI-8226. Description: Induction of apoptosis in human RPMI-8226 cells assessed as proportion of late apoptotic cells at 0.5 uM incubated for 24 hrs by AnnexinV-FITC/PI staining based flow cytometry (reference value: 4.18%). In kind it is functional, cell-based. Background: A flow cytometer gives signals particle by particle.
Data set [11] is described as follows: Metabolic stability of the compound in rat liver microsomes assessed as parent compound remaining measured after 60 mins in presence of NADPH by LC-MS/MS analysis. The data set is classed as ADME, Microsome. The note with it: read-out: Stability.

Active and inactive are the calls of the source. No cut-off for these calls is given here.

Sequence of Histone deacetylase 3/Nuclear receptor corepressor 2 (HDAC3/NCoR2) (O15379 whole entry, the tested form may be a part): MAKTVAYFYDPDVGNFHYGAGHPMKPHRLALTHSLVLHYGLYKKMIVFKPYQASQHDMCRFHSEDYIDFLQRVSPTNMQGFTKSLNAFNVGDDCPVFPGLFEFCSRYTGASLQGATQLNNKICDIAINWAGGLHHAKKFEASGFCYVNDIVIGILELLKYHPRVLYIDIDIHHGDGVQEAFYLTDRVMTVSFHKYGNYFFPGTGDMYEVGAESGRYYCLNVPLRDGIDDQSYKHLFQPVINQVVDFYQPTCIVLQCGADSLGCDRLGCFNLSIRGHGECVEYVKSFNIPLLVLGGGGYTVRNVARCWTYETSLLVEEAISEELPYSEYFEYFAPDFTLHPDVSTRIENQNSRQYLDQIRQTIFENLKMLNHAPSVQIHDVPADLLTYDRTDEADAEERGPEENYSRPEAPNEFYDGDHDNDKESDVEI
Sequence of Histone deacetylase 3/Nuclear receptor corepressor 2 (HDAC3/NCoR2) (Q9Y618 whole entry, further chain, the tested form may be a part): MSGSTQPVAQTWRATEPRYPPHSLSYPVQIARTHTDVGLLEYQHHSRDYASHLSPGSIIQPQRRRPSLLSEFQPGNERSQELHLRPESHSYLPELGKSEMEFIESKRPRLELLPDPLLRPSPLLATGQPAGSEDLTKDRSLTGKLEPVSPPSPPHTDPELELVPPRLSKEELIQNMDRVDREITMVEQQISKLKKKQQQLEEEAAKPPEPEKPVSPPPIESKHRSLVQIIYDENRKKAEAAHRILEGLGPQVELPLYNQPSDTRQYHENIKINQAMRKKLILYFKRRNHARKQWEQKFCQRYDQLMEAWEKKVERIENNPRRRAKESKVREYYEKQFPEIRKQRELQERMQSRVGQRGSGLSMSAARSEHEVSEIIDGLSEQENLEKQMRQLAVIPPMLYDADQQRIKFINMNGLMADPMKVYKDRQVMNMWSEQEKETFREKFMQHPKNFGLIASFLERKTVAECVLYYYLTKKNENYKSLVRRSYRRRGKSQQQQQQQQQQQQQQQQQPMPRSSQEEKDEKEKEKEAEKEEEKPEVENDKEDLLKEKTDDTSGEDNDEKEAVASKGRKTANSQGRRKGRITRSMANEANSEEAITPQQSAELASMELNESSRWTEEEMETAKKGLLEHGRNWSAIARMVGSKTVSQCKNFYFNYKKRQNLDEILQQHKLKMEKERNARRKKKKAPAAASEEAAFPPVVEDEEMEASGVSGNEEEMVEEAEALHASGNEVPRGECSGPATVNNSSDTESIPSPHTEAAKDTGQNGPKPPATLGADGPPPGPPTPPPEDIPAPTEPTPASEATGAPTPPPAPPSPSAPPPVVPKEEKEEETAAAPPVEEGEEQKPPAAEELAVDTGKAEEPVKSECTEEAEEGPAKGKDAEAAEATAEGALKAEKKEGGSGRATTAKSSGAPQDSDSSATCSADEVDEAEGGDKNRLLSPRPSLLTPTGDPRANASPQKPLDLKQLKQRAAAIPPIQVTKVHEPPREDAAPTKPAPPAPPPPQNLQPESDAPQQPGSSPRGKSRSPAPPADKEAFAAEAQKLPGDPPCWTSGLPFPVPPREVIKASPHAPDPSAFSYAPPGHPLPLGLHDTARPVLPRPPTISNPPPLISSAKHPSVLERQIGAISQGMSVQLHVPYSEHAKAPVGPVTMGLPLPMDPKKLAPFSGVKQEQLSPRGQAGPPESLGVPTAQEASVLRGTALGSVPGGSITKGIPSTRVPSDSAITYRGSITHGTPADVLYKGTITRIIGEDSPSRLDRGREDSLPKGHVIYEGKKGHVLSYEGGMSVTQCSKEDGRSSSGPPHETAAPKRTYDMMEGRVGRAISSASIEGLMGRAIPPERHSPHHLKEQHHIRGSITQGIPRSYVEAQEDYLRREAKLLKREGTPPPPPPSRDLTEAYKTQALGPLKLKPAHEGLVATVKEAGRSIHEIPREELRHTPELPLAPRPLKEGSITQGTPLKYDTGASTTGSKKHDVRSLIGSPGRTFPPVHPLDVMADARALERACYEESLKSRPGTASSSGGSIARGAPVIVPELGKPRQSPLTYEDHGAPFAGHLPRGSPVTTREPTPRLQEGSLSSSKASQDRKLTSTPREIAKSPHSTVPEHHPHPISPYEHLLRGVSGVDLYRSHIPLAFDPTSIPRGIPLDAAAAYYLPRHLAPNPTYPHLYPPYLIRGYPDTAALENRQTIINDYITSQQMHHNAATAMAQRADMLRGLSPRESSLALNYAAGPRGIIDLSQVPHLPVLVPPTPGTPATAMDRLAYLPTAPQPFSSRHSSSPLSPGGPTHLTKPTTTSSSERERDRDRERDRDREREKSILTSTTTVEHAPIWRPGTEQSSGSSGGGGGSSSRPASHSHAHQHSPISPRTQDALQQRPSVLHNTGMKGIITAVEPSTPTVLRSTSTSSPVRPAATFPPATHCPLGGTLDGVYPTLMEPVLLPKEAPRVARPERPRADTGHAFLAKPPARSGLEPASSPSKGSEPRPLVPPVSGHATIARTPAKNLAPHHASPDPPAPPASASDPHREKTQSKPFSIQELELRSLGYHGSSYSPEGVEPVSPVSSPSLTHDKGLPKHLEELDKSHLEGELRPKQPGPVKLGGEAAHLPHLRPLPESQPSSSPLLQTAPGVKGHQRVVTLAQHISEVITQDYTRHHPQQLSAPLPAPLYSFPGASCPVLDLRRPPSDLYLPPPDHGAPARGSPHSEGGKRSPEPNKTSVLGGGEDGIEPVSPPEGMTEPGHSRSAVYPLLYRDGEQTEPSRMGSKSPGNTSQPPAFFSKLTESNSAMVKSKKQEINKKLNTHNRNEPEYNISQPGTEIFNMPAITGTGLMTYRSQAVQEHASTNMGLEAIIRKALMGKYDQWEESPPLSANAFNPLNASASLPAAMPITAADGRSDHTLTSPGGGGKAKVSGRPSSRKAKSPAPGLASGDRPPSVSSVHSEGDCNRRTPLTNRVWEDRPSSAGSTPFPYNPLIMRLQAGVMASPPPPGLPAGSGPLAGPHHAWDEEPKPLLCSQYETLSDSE
Sequence of Class 1 histone deacetylase (Homo sapiens) (O15379 whole entry, looked up): as the sequence (O15379 whole entry, the tested form may be a part) above
Sequence of Class 1 histone deacetylase (Homo sapiens) (Q13547 whole entry, looked up): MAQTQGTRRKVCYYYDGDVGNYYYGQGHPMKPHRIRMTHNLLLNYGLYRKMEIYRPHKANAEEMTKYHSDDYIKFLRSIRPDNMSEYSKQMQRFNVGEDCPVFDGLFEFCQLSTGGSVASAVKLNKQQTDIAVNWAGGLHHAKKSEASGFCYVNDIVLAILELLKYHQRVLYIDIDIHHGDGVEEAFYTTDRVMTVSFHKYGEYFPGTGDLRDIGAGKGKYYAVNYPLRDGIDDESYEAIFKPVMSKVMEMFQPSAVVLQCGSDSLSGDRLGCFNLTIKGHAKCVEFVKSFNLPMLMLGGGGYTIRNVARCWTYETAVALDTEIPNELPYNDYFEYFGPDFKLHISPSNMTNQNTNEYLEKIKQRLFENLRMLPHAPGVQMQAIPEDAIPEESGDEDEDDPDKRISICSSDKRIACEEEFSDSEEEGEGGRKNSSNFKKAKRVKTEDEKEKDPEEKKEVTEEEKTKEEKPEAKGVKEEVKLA
Sequence of Class 1 histone deacetylase (Homo sapiens) (Q92769 whole entry, looked up): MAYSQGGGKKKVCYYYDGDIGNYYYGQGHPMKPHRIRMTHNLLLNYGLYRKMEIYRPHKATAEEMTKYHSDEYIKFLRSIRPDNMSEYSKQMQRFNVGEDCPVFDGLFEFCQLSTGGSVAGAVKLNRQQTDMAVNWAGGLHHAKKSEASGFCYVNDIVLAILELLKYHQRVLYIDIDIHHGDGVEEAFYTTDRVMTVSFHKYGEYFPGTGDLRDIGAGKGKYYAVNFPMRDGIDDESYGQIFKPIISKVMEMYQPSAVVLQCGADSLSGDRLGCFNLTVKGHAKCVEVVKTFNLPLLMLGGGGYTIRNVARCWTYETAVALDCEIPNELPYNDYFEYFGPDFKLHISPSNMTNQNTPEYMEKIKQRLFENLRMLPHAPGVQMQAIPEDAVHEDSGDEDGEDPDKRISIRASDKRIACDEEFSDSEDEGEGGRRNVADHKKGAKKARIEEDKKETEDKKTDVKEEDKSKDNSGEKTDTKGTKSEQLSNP
Sequence of Class 1 histone deacetylase (Homo sapiens) (Q9BY41 whole entry, looked up): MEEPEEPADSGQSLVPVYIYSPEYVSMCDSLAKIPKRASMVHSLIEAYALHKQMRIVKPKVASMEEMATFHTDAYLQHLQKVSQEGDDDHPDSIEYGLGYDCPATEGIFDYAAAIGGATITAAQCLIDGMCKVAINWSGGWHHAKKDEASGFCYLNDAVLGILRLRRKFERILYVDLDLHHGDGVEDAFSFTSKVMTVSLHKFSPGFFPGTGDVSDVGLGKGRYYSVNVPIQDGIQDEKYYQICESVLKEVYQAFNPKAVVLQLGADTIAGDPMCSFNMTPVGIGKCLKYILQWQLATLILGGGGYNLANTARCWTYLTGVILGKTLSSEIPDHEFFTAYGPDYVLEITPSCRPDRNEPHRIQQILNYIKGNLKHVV

One may read the IC50 as the concentration that inhibits the measured activity by half. For `O=C(NO)c1ccc(COc2no[n+]([O-])c2S(=O)(=O)c2ccccc2)cc1`, the “fold change (FC)” value in data set [1] was found to be 1; in [3], 1.2; in data set [4], 1; in data set [7], 4.3; in data set [8], 1.3. Further, the IC50 at 48 h in [2] was determined as 8.2 µM. The IC50 is 1.8 µM in [5] and 8.2 µM in data set [9]. For the same compound, the Activity with RPMI-8226 [6] came out at 21.4%. Further, in the data set with RPMI-8226 [10], the result was Active. The remaining at 1 h in [11] was 0.6%.
